Test results reported in PubChem BioAssay (NCI).
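Method: 48-hour compound exposure of cells in 96-well plates, five concentrations, linear interpolation of endpoints. The concentration for 50% growth inhibition is given as GI50. TGI denotes the concentration required for complete inhibition of growth.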

Legend:
Test in all cases: growth of human tumour cells (NCI), 48 h
HOP-62 NSCLC = tested on: HOP-62 NSCLC
NCI/ADR-RES ovarian = tested on: NCI/ADR-RES ovarian
TK-10 renal = tested on: TK-10 renal
OVCAR-5 ovarian = tested on: OVCAR-5 ovarian
UO-31 renal = tested on: UO-31 renal
SF-295 CNS = tested on: SF-295 CNS
IGROV1 ovarian = tested on: IGROV1 ovarian
MOLT-4 leukemia = tested on: MOLT-4 leukemia
SF-268 CNS = tested on: SF-268 CNS
UACC-257 melanoma = tested on: UACC-257 melanoma
HT29 colon = tested on: HT29 colon
SN12C renal = tested on: SN12C renal
HCC-2998 colon = tested on: HCC-2998 colon
HCT-15 colon = tested on: HCT-15 colon
COLO 205 colon = tested on: COLO 205 colon
KM12 colon = tested on: KM12 colon
OVCAR-8 ovarian = tested on: OVCAR-8 ovarian
MDA-MB-231 breast = tested on: MDA-MB-231 breast
K-562 leukemia = tested on: K-562 leukemia
SK-OV-3 ovarian = tested on: SK-OV-3 ovarian
CAKI-1 renal = tested on: CAKI-1 renal
NCI-H522 lung = tested on: NCI-H522 lung
786-0 renal = tested on: 786-0 renal
NCI-H23 lung = tested on: NCI-H23 lung
DU-145 prostate = tested on: DU-145 prostate
LOX IMVI melanoma = tested on: LOX IMVI melanoma
NCI-H226 lung = tested on: NCI-H226 lung
HOP-92 NSCLC = tested on: HOP-92 NSCLC
OVCAR-4 ovarian = tested on: OVCAR-4 ovarian
UACC-62 melanoma = tested on: UACC-62 melanoma
OVCAR-3 ovarian = tested on: OVCAR-3 ovarian
SNB-19 CNS = tested on: SNB-19 CNS
A498 renal = tested on: A498 renal
BT-549 breast = tested on: BT-549 breast
MALME-3M melanoma = tested on: MALME-3M melanoma
M14 melanoma = tested on: M14 melanoma
NCI-H460 lung = tested on: NCI-H460 lung
U251 CNS = tested on: U251 CNS
SF-539 CNS = tested on: SF-539 CNS
RXF 393 renal = tested on: RXF 393 renal
HS 578T breast = tested on: HS 578T breast
ACHN renal = tested on: ACHN renal
EKVX NSCLC = tested on: EKVX NSCLC
HCT-116 colon = tested on: HCT-116 colon
A549 NSCLC = tested on: A549 NSCLC
CCRF-CEM leukemia = tested on: CCRF-CEM leukemia
SW-620 colon = tested on: SW-620 colon
SK-MEL-28 melanoma = tested on: SK-MEL-28 melanoma
SK-MEL-5 melanoma = tested on: SK-MEL-5 melanoma
MCF7 breast = tested on: MCF7 breast
MDA-MB-435 = tested on: MDA-MB-435
PC-3 prostate = tested on: PC-3 prostate
SNB-75 CNS = tested on: SNB-75 CNS
RPMI-8226 leukemia = tested on: RPMI-8226 leukemia
SK-MEL-2 melanoma = tested on: SK-MEL-2 melanoma
HL-60(TB) leukemia = tested on: HL-60(TB) leukemia
SR leukemia = tested on: SR leukemia

`Cn1c2c(c3c(Cl)nncc31)Cc1ccccc1-2` showed a GI50 (HOP-62 NSCLC) of 25.2 µM, a TGI (HOP-62 NSCLC) greater than 100 µM and a GI50 (NCI/ADR-RES ovarian) of 16.3 µM. The TGI (NCI/ADR-RES ovarian) was 44.5 µM, the GI50 (TK-10 renal) was 26.2 µM and the TGI (TK-10 renal) was greater than 100 µM. For the same molecule, the GI50 (OVCAR-5 ovarian) was 27.4 µM, the TGI (OVCAR-5 ovarian) was greater than 100 µM and the GI50 (UO-31 renal) was 31.4 µM. It also gave a TGI (UO-31 renal) greater than 100 µM, a GI50 (SF-295 CNS) of 17.5 µM and a TGI (SF-295 CNS) of 66.7 µM. It also gave a GI50 (IGROV1 ovarian) of 48.9 µM, a TGI (IGROV1 ovarian) greater than 100 µM and a GI50 (MOLT-4 leukemia) of 3.12 µM. The GI50 (SF-268 CNS) was 25.9 µM, the TGI (SF-268 CNS) was greater than 100 µM and the GI50 (UACC-257 melanoma) was 48.7 µM. It also gave a TGI (UACC-257 melanoma) greater than 100 µM, a GI50 (HT29 colon) of 16.9 µM and a TGI (HT29 colon) of 44.5 µM. It also gave a GI50 (SN12C renal) of 20.8 µM, a TGI (SN12C renal) of 81.7 µM and a GI50 (HCC-2998 colon) of 20.9 µM. The TGI (HCC-2998 colon) was greater than 100 µM, the GI50 (HCT-15 colon) was 22.2 µM and the TGI (HCT-15 colon) was greater than 100 µM. The GI50 (COLO 205 colon) was 15.3 µM, the TGI (COLO 205 colon) was 50.2 µM and the GI50 (KM12 colon) was 32.8 µM. It also gave a TGI (KM12 colon) greater than 100 µM, a GI50 (OVCAR-8 ovarian) of 25.5 µM and a TGI (OVCAR-8 ovarian) greater than 100 µM. It also gave a GI50 (MDA-MB-231 breast) of 21.2 µM, a TGI (MDA-MB-231 breast) of 73.5 µM and a GI50 (K-562 leukemia) of 25.9 µM. The TGI (K-562 leukemia) was greater than 100 µM, the GI50 (SK-OV-3 ovarian) was 28.6 µM and the TGI (SK-OV-3 ovarian) was 75.1 µM. It also gave a GI50 (CAKI-1 renal) of 16.9 µM, a TGI (CAKI-1 renal) of 67.2 µM and a GI50 (NCI-H522 lung) of 25.1 µM. For the same molecule, the TGI (NCI-H522 lung) was 59.9 µM, the GI50 (786-0 renal) was 23.6 µM and the TGI (786-0 renal) was greater than 100 µM. The GI50 (NCI-H23 lung) was 18.7 µM, the TGI (NCI-H23 lung) was 49 µM and the GI50 (DU-145 prostate) was 6.4 µM. It also gave a TGI (DU-145 prostate) of 41 µM, a GI50 (LOX IMVI melanoma) of 20.9 µM and a TGI (LOX IMVI melanoma) greater than 100 µM. The GI50 (NCI-H226 lung) was 15.6 µM, the TGI (NCI-H226 lung) was 46.8 µM and the GI50 (HOP-92 NSCLC) was 9.47 µM. The TGI (HOP-92 NSCLC) was 43 µM, the GI50 (OVCAR-4 ovarian) was 23.9 µM and the TGI (OVCAR-4 ovarian) was greater than 100 µM. The GI50 (UACC-62 melanoma) was 13.9 µM, the TGI (UACC-62 melanoma) was 62 µM and the GI50 (OVCAR-3 ovarian) was 31 µM. For the same molecule, the TGI (OVCAR-3 ovarian) was greater than 100 µM, the GI50 (SNB-19 CNS) was 12.9 µM and the TGI (SNB-19 CNS) was 51.1 µM. For the same molecule, the GI50 (A498 renal) was 11.4 µM, the TGI (A498 renal) was 34.5 µM and the GI50 (BT-549 breast) was 20.7 µM. The TGI (BT-549 breast) was 64.9 µM, the GI50 (MALME-3M melanoma) was 24.9 µM and the TGI (MALME-3M melanoma) was 85.6 µM. It also gave a GI50 (M14 melanoma) of 28.1 µM, a TGI (M14 melanoma) greater than 100 µM and a GI50 (NCI-H460 lung) of 5.28 µM. It also gave a TGI (NCI-H460 lung) of 67.1 µM, a GI50 (U251 CNS) of 20 µM and a TGI (U251 CNS) greater than 100 µM. The GI50 (SF-539 CNS) was 20 µM, the TGI (SF-539 CNS) was 76.1 µM and the GI50 (RXF 393 renal) was 24.5 µM. It also gave a TGI (RXF 393 renal) of 80.7 µM, a GI50 (HS 578T breast) of 28 µM and a TGI (HS 578T breast) greater than 100 µM. For the same molecule, the GI50 (ACHN renal) was 11.6 µM, the TGI (ACHN renal) was 54.3 µM and the GI50 (EKVX NSCLC) was 5.79 µM. It also gave a TGI (EKVX NSCLC) of 44.3 µM, a GI50 (HCT-116 colon) of 17.9 µM and a TGI (HCT-116 colon) greater than 100 µM. For the same molecule, the GI50 (A549 NSCLC) was 20.6 µM, the TGI (A549 NSCLC) was greater than 100 µM and the GI50 (CCRF-CEM leukemia) was 15.3 µM. It also gave a TGI (CCRF-CEM leukemia) greater than 100 µM, a GI50 (SW-620 colon) of 17.9 µM and a TGI (SW-620 colon) greater than 100 µM. For the same molecule, the GI50 (SK-MEL-28 melanoma) was 30.2 µM, the TGI (SK-MEL-28 melanoma) was greater than 100 µM and the GI50 (SK-MEL-5 melanoma) was 10.3 µM. It also gave a TGI (SK-MEL-5 melanoma) of 24.9 µM, a GI50 (MCF7 breast) of 9.03 µM and a TGI (MCF7 breast) greater than 100 µM. It also gave a GI50 (MDA-MB-435) of 29.7 µM, a TGI (MDA-MB-435) greater than 100 µM and a GI50 (PC-3 prostate) of 31.8 µM. For the same molecule, the TGI (PC-3 prostate) was greater than 100 µM, the GI50 (SNB-75 CNS) was 76.8 µM and the TGI (SNB-75 CNS) was greater than 100 µM. The GI50 (RPMI-8226 leukemia) was 18.1 µM and the TGI (RPMI-8226 leukemia) was greater than 100 µM.
With `CSc1nc2c(c(=O)n1C)N=C(c1ccc([N+](=O)[O-])cc1)CC(c1ccccc1)N2` (stereo not given) the TGI (HOP-62 NSCLC) was greater than 100 µM, the TGI (NCI/ADR-RES ovarian) was greater than 100 µM and the TGI (OVCAR-5 ovarian) was greater than 100 µM. For the same molecule, the TGI (UO-31 renal) was greater than 100 µM, the TGI (SF-295 CNS) was greater than 100 µM and the TGI (IGROV1 ovarian) was greater than 100 µM. It also gave a TGI (MOLT-4 leukemia) greater than 100 µM, a TGI (SK-MEL-2 melanoma) greater than 100 µM and a TGI (UACC-257 melanoma) greater than 100 µM. For the same molecule, the TGI (HT29 colon) was greater than 100 µM, the TGI (SN12C renal) was greater than 100 µM and the TGI (HCC-2998 colon) was greater than 100 µM. It also gave a TGI (COLO 205 colon) greater than 100 µM, a TGI (KM12 colon) greater than 100 µM and a TGI (OVCAR-8 ovarian) greater than 100 µM. The TGI (MDA-MB-231 breast) was greater than 100 µM, the TGI (HL-60(TB) leukemia) was 65.9 µM and the TGI (K-562 leukemia) was greater than 100 µM. For the same molecule, the TGI (SK-OV-3 ovarian) was greater than 100 µM, the TGI (CAKI-1 renal) was greater than 100 µM and the TGI (SR leukemia) was greater than 100 µM. The TGI (NCI-H522 lung) was greater than 100 µM, the TGI (786-0 renal) was greater than 100 µM and the TGI (NCI-H23 lung) was greater than 100 µM. For the same molecule, the TGI (DU-145 prostate) was greater than 100 µM, the TGI (LOX IMVI melanoma) was greater than 100 µM and the TGI (NCI-H226 lung) was greater than 100 µM. The TGI (HOP-92 NSCLC) was greater than 100 µM, the TGI (OVCAR-4 ovarian) was greater than 100 µM and the TGI (UACC-62 melanoma) was greater than 100 µM. For the same molecule, the TGI (OVCAR-3 ovarian) was greater than 100 µM, the TGI (SNB-19 CNS) was greater than 100 µM and the TGI (A498 renal) was greater than 100 µM. The TGI (BT-549 breast) was greater than 100 µM, the TGI (MALME-3M melanoma) was greater than 100 µM and the TGI (M14 melanoma) was greater than 100 µM. It also gave a TGI (NCI-H460 lung) greater than 100 µM, a TGI (U251 CNS) greater than 100 µM and a TGI (SF-539 CNS) greater than 100 µM. It also gave a TGI (RXF 393 renal) greater than 100 µM, a TGI (ACHN renal) greater than 100 µM and a TGI (EKVX NSCLC) greater than 100 µM. For the same molecule, the TGI (HCT-116 colon) was greater than 100 µM, the TGI (A549 NSCLC) was greater than 100 µM and the TGI (CCRF-CEM leukemia) was greater than 100 µM. The TGI (SW-620 colon) was greater than 100 µM, the TGI (SK-MEL-28 melanoma) was greater than 100 µM and the TGI (SK-MEL-5 melanoma) was greater than 100 µM. For the same molecule, the TGI (MCF7 breast) was greater than 100 µM, the TGI (MDA-MB-435) was greater than 100 µM and the TGI (PC-3 prostate) was greater than 100 µM. For the same molecule, the TGI (SNB-75 CNS) was greater than 100 µM and the TGI (RPMI-8226 leukemia) was greater than 100 µM.
